Measured values: patent publication US20090124672A1 (priority 2007, published 2009)

target: T1, hALDH2 (recombinant human mitochondria ALDH) (Homo sapiens, UniProt P05091); test: ALDH2 inhibition assay (NADH formation, formaldehyde substrate); format: biochemical; conditions: not given
T1 sequence (P05091 18-517): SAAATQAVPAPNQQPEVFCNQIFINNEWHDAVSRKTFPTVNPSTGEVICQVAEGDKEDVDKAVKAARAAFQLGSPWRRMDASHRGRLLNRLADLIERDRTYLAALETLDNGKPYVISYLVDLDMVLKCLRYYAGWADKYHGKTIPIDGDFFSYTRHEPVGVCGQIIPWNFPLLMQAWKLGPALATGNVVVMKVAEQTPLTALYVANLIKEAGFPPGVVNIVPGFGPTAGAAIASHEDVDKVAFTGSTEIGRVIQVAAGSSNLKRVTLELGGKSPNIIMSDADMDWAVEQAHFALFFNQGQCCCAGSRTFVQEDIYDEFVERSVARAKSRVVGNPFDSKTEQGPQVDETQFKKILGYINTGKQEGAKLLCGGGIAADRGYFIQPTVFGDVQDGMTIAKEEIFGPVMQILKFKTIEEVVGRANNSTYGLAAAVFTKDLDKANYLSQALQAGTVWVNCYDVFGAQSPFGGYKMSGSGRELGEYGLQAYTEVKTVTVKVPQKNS
Method: ALDH2 inhibition assays were performed in sodium phosphate buffer (50 mM, pH 7.4) containing 1.2 mM NAD^+ (Sigma N7004), 1 nM hALDH2 (recombinant human mitochondria ALDH), various concentrations of test compounds (from 0.03 nM to 1000 nM), and 0.15 mM freshly prepared formaldehyde solution (Ladd Research 20295). Reactions were initiated by the addition of formaldehyde and rates were recorded by monitoring NADH formation in a temperature controlled (25° C.) FluoroMax-2 Fluorimeter with excitation and emission wavelengths set at 340 and 460 nm, respectively. […] Normally, IC50 values were determined by fitting concentration-inhibition data to sigmoidal dose-response curves with two-floating parameters: IC50 and Hill coefficient. When tight binding situation was suspected, apparent Ki values were estimated by fitting dose-response data to Morrison's equation [Methods in Enzymology 63, 437-467, 1979].

| Compound | IC50 [nM] |
| --- | --- |
| COc1ccc(-c2nc(COc3ccc4c(=O)c(-c5ccc(O)cc5)coc4c3)no2)cc1C(F)(F)F | 20 |
| 7-{3-[4-(4-chlorophenyl)pyrazolyl]propoxy}-3-(4-hydroxyphenyl)chromen-4-one [PT-106] | 110 |
| Cc1nc(-c2ccc(C(F)(F)F)cc2)sc1COc1ccc2c(=O)c(-c3ccc(O)cc3)coc2c1 [PT-4, 3-(4-hydroxyphenyl)-7-({4-methyl-2-[4-(trifluoromethyl)phenyl](1,3-thiazol-5-yl)}methoxy)chromen-4-one] | 200 |
| O=c1c(-c2ccc(O)cc2)coc2cc(OCc3coc(-c4ccc(F)c(F)c4)n3)ccc12 [PT-15, 7-{[2-(3,4-difluorophenyl)(1,3-oxazol-4-yl)]methoxy}-3-(4-hydroxyphenyl)chromen-4-one] | 120 |
| O=c1c(-c2ccc(O)cc2)coc2cc(OCc3coc(-c4ccc(F)cc4)n3)ccc12 [PT-16, 7-{[2-(4-fluorophenyl)(1,3-oxazol-4-yl)]methoxy}-3-(4-hydroxyphenyl)chromen-4-one] | 47 |
| O=c1c(-c2ccc(O)cc2)coc2cc(OCc3cccc(C(F)(F)F)c3)ccc12 [PT-26, 3-(4-hydroxyphenyl)-7-{[3-(trifluoromethyl)phenyl]methoxy}chromen-4-one] | 34 |
| O=c1c(-c2ccc(O)cc2)coc2cc(OCc3noc(-c4ccc(F)c(C(F)(F)F)c4)n3)ccc12 [PT-30, 7-({5-[4-fluoro-3-(trifluoromethyl)phenyl](1,2,4-oxadiazol-3-yl)}methoxy)-3-(4-hydroxyphenyl)chromen-4-one] | 100 |
| O=c1c(-c2ccc(O)cc2)coc2cc(OCc3noc(-c4cc(C(F)(F)F)ccc4C(F)(F)F)n3)ccc12 [PT-31, 7-({5-[2,5-bis(trifluoromethyl)phenyl](1,2,4-oxadiazol-3-yl)}methoxy)-3-(4-hydroxyphenyl)chromen-4-one] | 20 |
| C=CCOC(=O)c1cccc(-c2nc(COc3ccc4c(=O)c(-c5ccc(O)cc5)coc4c3)no2)c1 [PT-32, prop-2-enyl 3-(3-{[3-(4-hydroxyphenyl)-4-oxochromen-7-yloxy]methyl}-1,2,4-oxadiazol-5-yl)benzoate] | 1150 |
| O=c1c(-c2ccc(O)cc2)coc2cc(OCc3noc(-c4ccc(C(F)(F)F)cc4)n3)ccc12 [PT-38, 3-(4-hydroxyphenyl)-7-({5-[4-(trifluoromethyl)phenyl](1,2,4-oxadiazol-3-yl)}methoxy)chromen-4-one] | 600 |
| O=c1c(-c2ccc(O)cc2)coc2cc(OCc3noc(-c4cc(C(F)(F)F)cc(C(F)(F)F)c4)n3)ccc12 [PT-39, 7-({5-[3,5-bis(trifluoromethyl)phenyl](1,2,4-oxadiazol-3-yl)}methoxy)-3-(4-hydroxyphenyl)chromen-4-one] | 130 |
| N#Cc1cccc(-c2nc(COc3ccc4c(=O)c(-c5ccc(O)cc5)coc4c3)no2)c1 [PT-40, 3-(3-{[3-(4-hydroxyphenyl)-4-oxochromen-7-yloxy]methyl}-1,2,4-oxadiazol-5-yl)benzenecarbonitrile] | 22 |
| O=C(O)c1cccc(-c2nc(COc3ccc4c(=O)c(-c5ccc(O)cc5)coc4c3)no2)c1 [PT-41, 3-(3-{[3-(4-hydroxyphenyl)-4-oxochromen-7-yloxy]methyl}-1,2,4-oxadiazol-5-yl)benzoic acid] | 10 |

Other lines, results leading:

| IC50 [nM] | Compound |
| --- | --- |
| 10 | 3-(4-hydroxyphenyl)-7-[(6-pyrazolyl(3-pyridyl))methoxy]chromen-4-one [PT-52] |
| 11 | 7-{2-[4-(3-chlorophenyl)piperazinyl]ethoxy}-3-(4-hydroxyphenyl)chromen-4-one [PT-123] |
| 110 | 7-{2-[4-(4-chlorophenyl)pyrazolyl]ethoxy}-3-(4-hydroxyphenyl)chromen-4-one [PT-51] |
| 3 | O=c1c(-c2ccc(O)cc2)coc2cc(OCc3coc(-c4cccc(C(F)(F)F)c4)n3)ccc12 [PT-12, 3-(4-hydroxyphenyl)-7-({2-[3-(trifluoromethyl)phenyl](1,3-oxazol-4-yl)}methoxy)chromen-4-one] |
| 20 | O=c1c(-c2ccc(O)cc2)coc2cc(OCc3coc(-c4cc(F)cc(C(F)(F)F)c4)n3)ccc12 [PT-13, 7-({2-[5-fluoro-3-(trifluoromethyl)phenyl](1,3-oxazol-4-yl)}methoxy)-3-(4-hydroxyphenyl)chromen-4-one] |
| 60 | O=c1c(-c2ccc(O)cc2)coc2cc(OCc3coc(-c4cc(F)cc(F)c4)n3)ccc12 [PT-14, 7-{[2-(3,5-difluorophenyl)(1,3-oxazol-4-yl)]methoxy}-3-(4-hydroxyphenyl)chromen-4-one] |
| 573 | O=c1c(-c2ccc(O)cc2)coc2cc(OCc3coc(-c4ccc(Cl)cc4)n3)ccc12 [PT-17, 7-{[2-(4-chlorophenyl)(1,3-oxazol-4-yl)]methoxy}-3-(4-hydroxyphenyl)chromen-4-one] |
| 160 | O=c1c(-c2ccc(O)cc2)coc2cc(OCc3noc(-c4ccccc4)n3)ccc12 [PT-24, 3-(4-hydroxyphenyl)-7-[(5-phenyl(1,2,4-oxadiazol-3-yl))methoxy]chromen-4-one] |
| 4 | N#Cc1cccc(COc2ccc3c(=O)c(-c4ccc(O)cc4)coc3c2)c1 [PT-25, 3-{[3-(4-hydroxyphenyl)-4-oxochromen-7-yloxy]methyl}benzenecarbonitrile] |
| 58 | O=c1c(-c2ccc(O)cc2)coc2cc(OCc3cc(F)cc(C(F)(F)F)c3)ccc12 [PT-28, 7-{[3-fluoro-5-(trifluoromethyl)phenyl]methoxy}-3-(4-hydroxyphenyl)chromen-4-one] |
| 10 | O=c1c(-c2ccc(O)cc2)coc2cc(OCc3noc(-c4cc(F)cc(C(F)(F)F)c4)n3)ccc12 [PT-29, 7-({5-[3-fluoro-5-(trifluoromethyl)phenyl](1,2,4-oxadiazol-3-yl)}methoxy)-3-(4-hydroxyphenyl)chromen-4-one] |
| 20 | CC(C)OC(=O)c1cccc(COc2ccc3c(=O)c(-c4ccc(O)cc4)coc3c2)c1 [PT-35, methylethyl 3-{[3-(4-hydroxyphenyl)-4-oxochromen-7-yloxy]methyl}benzoate] |
| 170 | O=C(O)c1ccc(COc2ccc3c(=O)c(-c4ccc(O)cc4)coc3c2)cc1 [PT-36, 4-{[3-(4-hydroxyphenyl)-4-oxochromen-7-yloxy]methyl}benzoic acid] |
| 380 | NC(=O)c1ccc(COc2ccc3c(=O)c(-c4ccc(O)cc4)coc3c2)cc1 [PT-37, 4-{[3-(4-hydroxyphenyl)-4-oxochromen-7-yloxy]methyl}benzamide] |

same assay, conditions: at 1 μM; read-out: hALDH2 inhibition (IC50 hALDH2 column)

| Compound | inhibition at 1 µM [%] |
| --- | --- |
| N#Cc1ccc(-c2coc3cc(OCc4noc(-c5cc(F)cc(C(F)(F)F)c5)n4)ccc3c2=O)cc1 [PT-1, 4-[7-({5-[3-fluoro-5-(trifluoromethyl)phenyl](1,2,4-oxadiazol-3-yl)}methoxy)-4-oxochromen-3-yl]benzenecarbonitrile] | 17 |
| CS(=O)(=O)Nc1ccc(-c2coc3cc(OCc4nc(-c5cc(F)cc(C(F)(F)F)c5)no4)ccc3c2=O)cc1 [PT-8, 7-({3-[5-fluoro-3-(trifluoromethyl)phenyl](1,2,4-oxadiazol-5-yl)}methoxy)-3-{4-[(methylsulfonyl)amino]phenyl}chromen-4-one] | 57 |
| N#Cc1cc(-c2coc3cc(OCc4noc(-c5cc(F)cc(C(F)(F)F)c5)n4)ccc3c2=O)ccc1F [PT-9, 2-fluoro-5-[7-({5-[5-fluoro-3-(trifluoromethyl)phenyl](1,2,4-oxadiazol-3-yl)}methoxy)-4-oxochromen-3-yl]benzenecarbonitrile] | 24 |

Continued, values first:

| inhibition at 1 µM [%] | Compound |
| --- | --- |
| 22 | CCOC(=O)c1cccc(-c2coc3cc(OCc4noc(-c5cc(F)cc(C(F)(F)F)c5)n4)ccc3c2=O)c1 [PT-3, ethyl 3-[7-({5-[3-fluoro-5-(trifluoromethyl)phenyl](1,2,4-oxadiazol-3-yl)}methoxy)-4-oxochromen-3-yl]benzoate] |
| 0.19 | Cc1ccc(S(=O)(=O)Nc2ccc(-c3coc4cc(OCc5sc(-c6ccc(C(F)(F)F)cc6)nc5C)ccc4c3=O)cc2)cc1 [PT-5, 3-(4-{[(4-methylphenyl)sulfonyl]amino}phenyl)-7-({4-methyl-2-[4-(trifluoromethyl)phenyl](1,3-thiazol-5-yl)}methoxy)chromen-4-one] |
| 16 | COC(=O)c1cccc(COc2ccc3c(=O)c(-c4ccc(OC)nc4)coc3c2)c1 [PT-6, methyl 3-{[3-(6-methoxy(3-pyridyl))-4-oxochromen-7-yloxy]methyl}benzoate] |
| 75 | COC(=O)c1cccc(COc2ccc3c(=O)c(-c4ccc(CO)cc4)coc3c2)c1 [PT-7, methyl 3-({3-[4-(hydroxymethyl)phenyl]-4-oxochromen-7-yloxy}methyl)benzoate] |
| 60 | CCOC(=O)COc1ccc(-c2coc3cc(OCC(=O)OCC)ccc3c2=O)cc1 [PT-10, ethyl 2-(3-{4-[(ethoxycarbonyl)methoxy]phenyl}-4-oxochromen-7-yloxy)acetate] |
